Experimental data from US6737383B1, “Herbicidal oxadiazolidines” (priority 1999, dated 2004).

Key:
bedstraw = assay: Test B pre/postemergence bedstraw; format: in vivo, Galium aparine; details: Preemergence; for Bedstraw plant response rating: scale of 0 to 10 where 0 is no effect and 10 is complete control
Method in brief: (§1)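 Test chemicals in a non-phytotoxic solvent mixture with surfactant were sprayed preemergence onto planted seeds and postemergence onto plants 2 to 18 cm tall (1- to 4-leaf stage). After twelve to sixteen days in a greenhouse, injury was visually rated against untreated controls from 0 (no effect) to 10 (complete control).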

blackgrass = assay: Test B pre/postemergence blackgrass; format: in vivo, Alopecurus myosuroides; details: for Blackgrass plant response rating: scale of 0 to 10 where 0 is no effect and 10 is complete control
Method in brief: as §1

surinam grass = assay: Test B pre/postemergence surinam grass; format: in vivo, Brachiaria decumbens; details: for B. signalgrass plant response rating: scale of 0 to 10 where 0 is no effect and 10 is complete control
Method in brief: as §1

corn = assay: Test B pre/postemergence corn; format: in vivo, Zea mays; details: for Corn plant response rating: scale of 0 to 10 where 0 is no effect and 10 is complete control
Method in brief: as §1

crabgrass = assay: Test B pre/postemergence crabgrass; format: in vivo, Digitaria sanguinalis; details: for Crabgrass plant response rating: scale of 0 to 10 where 0 is no effect and 10 is complete control
Method in brief: as §1

giant foxtail = assay: Test B pre/postemergence giant foxtail; format: in vivo, Setaria faberii; details: for Giant foxtail plant response rating: scale of 0 to 10 where 0 is no effect and 10 is complete control
Method in brief: as §1

rape = assay: Test B pre/postemergence rape; format: in vivo, Brassica napus; details: for Rape plant response rating: scale of 0 to 10 where 0 is no effect and 10 is complete control
Method in brief: as §1

sugar beet = assay: Test B pre/postemergence sugar beet; format: in vivo, Beta vulgaris; details: for Sugarbeets plant response rating: scale of 0 to 10 where 0 is no effect and 10 is complete control
Method in brief: as §1

velvetleaf = assay: Test B pre/postemergence velvetleaf; format: in vivo, Abutilon theophrasti; details: for Velvetleaf plant response rating: scale of 0 to 10 where 0 is no effect and 10 is complete control
Method in brief: as §1

wheat = assay: Test B pre/postemergence wheat; format: in vivo, Triticum aestivum; details: for Wheat plant response rating: scale of 0 to 10 where 0 is no effect and 10 is complete control
Method in brief: as §1

wild oat = assay: Test B pre/postemergence wild oat; format: in vivo, Avena fatua; details: for Wild oats plant response rating: scale of 0 to 10 where 0 is no effect and 10 is complete control
Method in brief: as §1

purple nutsedge = assay: Test B pre/postemergence purple nutsedge; format: in vivo, Cyperus rotundus; details: for Nutsedge plant response rating: scale of 0 to 10 where 0 is no effect and 10 is complete control
Method in brief: as §1

rice = assay: Test B flood test rice; format: in vivo, Oryza sativa
Method in brief: (§2)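 Flood test on plants grown to the 2-leaf stage; treated plants kept in greenhouse twelve to sixteen days, then visually rated against controls on a 0 (no effect) to 10 (complete control) scale.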

smallflower flatsedge = assay: Test B flood test smallflower flatsedge; format: in vivo, Cyperus difformis
Method in brief: as §2

duck salad = assay: Test B flood test duck salad; format: in vivo, Heteranthera limosa
Method in brief: as §2

bamyardgrass = assay: Test B flood test barnyardgrass; format: in vivo, Echinochloa crus-galli
Method in brief: as §2

[1] = Postemergence, Rate 125 g/ha, scale 0 to 10, 0 is no effect, 10 is complete control
[2] = Postemergence, Rate 250 g/ha, scale 0 to 10, 0 is no effect, 10 is complete control
[3] = Preemergence, Rate 62 g/ha, scale 0 to 10 (0 no effect, 10 complete control)
[4] = Rate 500 g/ha, Postemergence, scale 0 to 10, 0 no effect, 10 complete control
[5] = Postemergence (flood test), Rate 125 g/ha, scale 0 to 10, 0 is no effect, 10 is complete control
[6] = Rate 62 g/ha, Postemergence (flood test species), scale of 0 to 10 where 0 is no effect and 10 is complete control
[7] = Rate 62 g/ha, flood test species, Pre-emergence, visual evaluation after twelve to sixteen days
[8] = Rate 125 g/ha, under heading Pre-emergence, flood test species, visual evaluation after twelve to sixteen days
[9] = Rate 250 g/ha, Pre-emergence, flood-test species, scale 0 to 10, 0 is no effect, 10 is complete control
[10] = Rate 500 g/ha, listed under Postemergence (flood test species), scale 0 to 10, 0 no effect, 10 complete control
[11] = Rate 500 g/ha, Pre-emergence, flood test species, scale 0 to 10 (0 no effect, 10 complete control)
[12] = flood test species, listed under Postemergence, Rate 250 g/ha, scale 0 to 10, 0 is no effect, 10 is complete control

CC1CC1n1c(=O)on(C(=O)N(c2ccc(F)cc2F)C(C)C)c1=O (stereo not drawn) [Compound 372]
9: Corn plant response rating (corn; Preemergence, Rate 250 g/ha) | Corn plant response rating (corn; Preemergence, Rate 500 g/ha) | Crabgrass plant response rating (0 to 10 scale) (crabgrass; Preemergence, Rate 125 g/ha) | Plant response rating, Crabgrass (crabgrass; [4]) | Plant response rating, Giant foxtail (giant foxtail; [1]) | Plant response rating, Giant foxtail (giant foxtail; [2]) | Plant response rating, Giant foxtail (giant foxtail; [4]) | Wild oats plant response rating (wild oat; Preemergence, Rate 250 g/ha)
0: Plant response rating, Bedstraw (bedstraw; Rate 62 g/ha, scale 0 to 10 (0 no effect, 10 complete control)) | Plant response rating, B. signalgrass (surinam grass; [3]) | B. signalgrass plant response rating (surinam grass; Rate 62 g/ha, Postemergence) | Plant response rating, Corn (corn; [1]) | Plant response rating, Corn (corn; [2]) | Corn plant response rating (corn; Rate 62 g/ha, Postemergence) | Sugarbeets plant response rating (sugar beet; Rate 62 g/ha, Postemergence) | Plant response rating, Velvetleaf (velvetleaf; [1]) | Velvetleaf plant response rating (velvetleaf; Rate 62 g/ha, Postemergence) | Plant response rating, Wheat (wheat; [1]) | Plant response rating, Wheat (wheat; [2]) | Plant response rating, Wheat (wheat; [3]) | Wheat plant response rating (0 to 10 scale) (wheat; Preemergence, Rate 125 g/ha) | Wheat plant response rating (wheat; Preemergence, Rate 250 g/ha) | Wheat plant response rating (wheat; Rate 62 g/ha, Postemergence) | Plant response rating, Nutsedge (purple nutsedge; [1]) | Plant response rating, Nutsedge (purple nutsedge; [2]) | Plant response rating, Nutsedge (purple nutsedge; [3]) | Nutsedge plant response rating (0 to 10 scale) (purple nutsedge; Preemergence, Rate 125 g/ha) | Nutsedge plant response rating (purple nutsedge; Preemergence, Rate 250 g/ha) | Nutsedge plant response rating (purple nutsedge; Rate 62 g/ha, Postemergence) | Plant response rating, Nutsedge (purple nutsedge; [4]) | Plant response rating, Rice (rice; [5]) | Rice plant response rating (rice; [6]) | Plant response rating, Rice (0 to 10 scale, 0 is no effect, 10 is complete control) (rice; [7]) | Rice plant response rating (0 to 10 scale, 0 is no effect, 10 is complete control) (rice; [8]) | Rice plant response rating (rice; [9]) | Rice plant response rating (rice; [11]) | Plant response rating, S. Flatsedge (0 to 10 scale, 0 is no effect, 10 is complete control) (smallflower flatsedge; [7]) | S. Flatsedge plant response rating (0 to 10 scale, 0 is no effect, 10 is complete control) (smallflower flatsedge; [8]) | S. Flatsedge plant response rating (smallflower flatsedge; [9]) | S. Flatsedge plant response rating (smallflower flatsedge; [11]) | Plant response rating, Ducksalad (0 to 10 scale, 0 is no effect, 10 is complete control) (duck salad; [7]) | Ducksalad plant response rating (0 to 10 scale, 0 is no effect, 10 is complete control) (duck salad; [8]) | Ducksalad plant response rating (duck salad; [9]) | Ducksalad plant response rating (duck salad; [11]) | Plant response rating, Barnyardgrass (bamyardgrass; [5]) | Barnyardgrass plant response rating (bamyardgrass; [6]) | Plant response rating, Barnyardgrass (0 to 10 scale, 0 is no effect, 10 is complete control) (bamyardgrass; [7]) | Barnyardgrass plant response rating (0 to 10 scale, 0 is no effect, 10 is complete control) (bamyardgrass; [8]) | Barnyardgrass plant response rating (bamyardgrass; [9]) | Barnyardgrass plant response rating (bamyardgrass; [11])
5: Plant response rating, Blackgrass (blackgrass; [3]) | Plant response rating, Rape (rape; [3]) | Rape plant response rating (0 to 10 scale) (rape; Preemergence, Rate 125 g/ha) | Plant response rating, Rape (rape; [4]) | Velvetleaf plant response rating (0 to 10 scale) (velvetleaf; Preemergence, Rate 125 g/ha) | Plant response rating, Wild oats (wild oat; [2])
10: Bedstraw plant response rating (bedstraw; Rate 250 g/ha) | Bedstraw plant response rating (bedstraw; Rate 500 g/ha) | Blackgrass plant response rating (blackgrass; Preemergence, Rate 250 g/ha) | Blackgrass plant response rating (blackgrass; Preemergence, Rate 500 g/ha) | Plant response rating, Blackgrass (blackgrass; [4]) | Crabgrass plant response rating (crabgrass; Preemergence, Rate 250 g/ha) | Crabgrass plant response rating (crabgrass; Preemergence, Rate 500 g/ha) | Plant response rating, Giant foxtail (giant foxtail; [3]) | Giant foxtail plant response rating (0 to 10 scale) (giant foxtail; Preemergence, Rate 125 g/ha) | Giant foxtail plant response rating (giant foxtail; Preemergence, Rate 250 g/ha) | Giant foxtail plant response rating (giant foxtail; Preemergence, Rate 500 g/ha) | Rape plant response rating (rape; Preemergence, Rate 250 g/ha) | Rape plant response rating (rape; Preemergence, Rate 500 g/ha) | Sugarbeets plant response rating (sugar beet; Preemergence, Rate 250 g/ha) | Sugarbeets plant response rating (sugar beet; Preemergence, Rate 500 g/ha) | Wild oats plant response rating (wild oat; Preemergence, Rate 500 g/ha) | Nutsedge plant response rating (purple nutsedge; Preemergence, Rate 500 g/ha)
2: Bedstraw plant response rating (0 to 10 scale) (bedstraw; Rate 125 g/ha) | Plant response rating, B. signalgrass (surinam grass; [1]) | Plant response rating, Corn (corn; [3]) | Corn plant response rating (0 to 10 scale) (corn; Preemergence, Rate 125 g/ha) | Plant response rating, Crabgrass (crabgrass; [1]) | Crabgrass plant response rating (crabgrass; Rate 62 g/ha, Postemergence) | Rape plant response rating (rape; Rate 62 g/ha, Postemergence) | Plant response rating, Sugarbeets (sugar beet; [1]) | Plant response rating, Sugarbeets (sugar beet; [2]) | Plant response rating, Sugarbeets (sugar beet; [3]) | Plant response rating, Velvetleaf (velvetleaf; [2]) | Plant response rating, Velvetleaf (velvetleaf; [4]) | Plant response rating, Wheat (wheat; [4]) | Wild oats plant response rating (wild oat; Rate 62 g/ha, Postemergence) | Plant response rating, Rice (rice; [10]) | Plant response rating, Rice (rice; [12]) | Plant response rating, S. Flatsedge (smallflower flatsedge; [5]) | S. Flatsedge plant response rating (smallflower flatsedge; [6])
8: B. signalgrass plant response rating (surinam grass; Preemergence, Rate 500 g/ha) | Plant response rating, Crabgrass (crabgrass; [2]) | Plant response rating, Crabgrass (crabgrass; [3]) | Plant response rating, Sugarbeets (sugar beet; [4]) | Plant response rating, Wild oats (wild oat; [4]) | Plant response rating, S. Flatsedge (smallflower flatsedge; [10]) | Plant response rating, S. Flatsedge (smallflower flatsedge; [12])
6: Blackgrass plant response rating (0 to 10 scale) (blackgrass; Preemergence, Rate 125 g/ha) | B. signalgrass plant response rating (surinam grass; Preemergence, Rate 250 g/ha) | Velvetleaf plant response rating (velvetleaf; Preemergence, Rate 250 g/ha) | Wheat plant response rating (wheat; Preemergence, Rate 500 g/ha) | Plant response rating, Ducksalad (duck salad; [5]) | Plant response rating, Ducksalad (duck salad; [10]) | Plant response rating, Ducksalad (duck salad; [12]) | Plant response rating, Barnyardgrass (bamyardgrass; [10])
3: Plant response rating, Corn (corn; [4]) | Plant response rating, Rape (rape; [2]) | Plant response rating, Velvetleaf (velvetleaf; [3]) | Ducksalad plant response rating (duck salad; [6])
4: Plant response rating, Blackgrass (blackgrass; [1]) | Blackgrass plant response rating (blackgrass; Rate 62 g/ha, Postemergence) | Plant response rating, B. signalgrass (surinam grass; [2]) | B. signalgrass plant response rating (0 to 10 scale, 0 is no effect, 10 is complete control) (surinam grass; Preemergence, Rate 125 g/ha) | Giant foxtail plant response rating (giant foxtail; Rate 62 g/ha, Postemergence) | Sugarbeets plant response rating (0 to 10 scale) (sugar beet; Preemergence, Rate 125 g/ha) | Plant response rating, Wild oats (wild oat; [1]) | Plant response rating, Wild oats (wild oat; [3]) | Plant response rating, Barnyardgrass (bamyardgrass; [12])
7: Plant response rating, Blackgrass (blackgrass; [2]) | Plant response rating, B. signalgrass (surinam grass; [4]) | Velvetleaf plant response rating (velvetleaf; Preemergence, Rate 500 g/ha) | Wild oats plant response rating (0 to 10 scale) (wild oat; Preemergence, Rate 125 g/ha)
